These compounds were tested against Recombinant human ATX (Homo sapiens (Human), UniProt Q13822) (assay: ATX inhibition assay (choline release, Amplex Red fluorescence)). Details: ATX 10 nM, LPC 18:1 10 μM, 37° C., 20 min pre-incubation; mean of n≧2.
Type: biochemical
Protocol: Reagents—LPC (oleoyl (18:1)) was purchased from Avanti Polar Lipids (Alabaster, Ala.) and solubilized in methanol to 20 mM. Amplex Red was obtained from Invitrogen Life Technologies (Paisley, UK) and dissolved in DMSO to 10 mM. Choline oxidase and horseradish peroxidase (HRP) were obtained from Sigma Aldrich (Dorset, UK) and dissolved in HBSS to 20 U/ml and 200 U/ml respectively. All reagents were stored at −20° C. in single use aliquots. All experimental measurements were performed in assay buffer made up immediately prior to use (HBSS, 0.01% BSA essentially fatty acid free).
PerkinElmer EnVision (Fluorescence Intensity/Absorbance Monochromator) or Tecan Infinite 200 PRO series plate reader was used to detect change in fluorescent intensity.
Assessing ATX inhibition—ATX activity was determined by measurement of released choline in reactions containing ATX (10 nM), choline oxidase (0.1 U/ml), HRP (100 U/ml), amplex red (50 μM) and LPC 18:1 (10 μM). Compounds of the invention were prepared as 10 point serial dilutions from 1 μM in duplicate and pre-incubated with ATX at 37° C. for 20 minutes prior to the addition of remaining reagents. The liberated choline was measured from changes in fluorescence intensity (λex 530 nm, λem 590 nm) of the product resurofin at 37° C. every 2 minutes over a 40-minute period. ATX activity was measured as a slope of the linear portion of the progress curve, typically between 14 to 24 minutes.
Data analysis—Slope data was exported to Graphpad prism (Graphpad software, San Diego, Calif.) where data was fitted to equation 1. Y=Bottom+(Top-Bottom)/(1+10^((Log IC50−X)*HillSlope)) Equation 1: […]

Going from `Cc1cnn(CCC2CCN(C(=O)/C=C/c3ccc(Cl)cc3Cn3nnc(C)n3)CC2)c1` [Example 33, (E)-3-(4-Chloro-2-((5-methyl-2H-tetrazol-2-yl)methyl)phenyl)-1-(4-(2-(4-methyl-1H-pyrazol-1-yl)ethyl)piperidin-1-yl)prop-2-en-1-one] to `Cc1cn(C2CCN(C(=O)/C=C/c3ccc(Cl)cc3Cn3nnc(C)n3)CC2)nn1` [Example 9, (E)-3-(4-Chloro-2-((5-methyl-2H-tetrazol-2-yl)methyl)phenyl)-1-(4-(4-methyl-1H-1,2,3-triazol-1-yl)piperidin-1-yl)prop-2-en-1-one], the IC50 rises from 0.053 µM to 0.1 µM (1.9-fold).

Compared with `Cc1nnn(Cc2cc(Cl)ccc2/C=C/C(=O)N2CCCN(c3ncccn3)CC2)n1` [Example 49.25, (E)-3-(4-Chloro-2-((5-methyl-2H-tetrazol-2-yl)methyl)phenyl)-1-(4-(pyrimidin-2-yl)-1,4-diazepan-1-yl)prop-2-en-1-one], `Cc1nnn(Cc2cc(Cl)ccc2/C=C/C(=O)N2CCN(C(=O)c3ccco3)CC2)n1` [Example 49.20, (E)-3-(4-Chloro-2-((5-methyl-2H-tetrazol-2-yl)methyl)phenyl)-1-(4-(furan-2-carbonyl)piperazin-1-yl)prop-2-en-1-one] is 11-fold higher in IC50: 0.01 µM for the first, 0.11 µM for the second. The first is the more potent here.

First: Cc1nnn(Cc2cc(C(F)F)ccc2/C=C/C(=O)N2CCC(c3nnc(C)o3)CC2)n1 [Example 52, (E)-3-(4-(Difluoromethyl)-2-((5-methyl-2H-tetrazol-2-yl)methy)phenyl)-1-(4-(5-methyl-1,3,4-oxadiazol-2-yl)piperidin-1-yl)prop-2-en-1-one]
Second: Cc1nnn(Cc2cc(C(F)(F)F)ccc2/C=C/C(=O)N2CCC(c3nnc(C)o3)CC2)n1 [Example 57, (E)-1-(4-(5-Methyl-1,3,4-oxadiazol-2-yl)piperidin-1-yl)-3-(2-((5-methyl-2H-tetrazol-2-yl)methyl)-4-(trifluoromethyl)phenyl)prop-2-en-1-one]
The IC50 of the first is 2.1-fold higher: 0.017 µM for the first, 0.008 µM for the second.

`Cc1nnn(Cc2cc(C(F)(F)F)ccc2/C=C/C(=O)N2CCCC[C@H]2c2nnc(C)o2)n1` [Example 1, (S,E)-1-(2-(5-Methyl-1,3,4-oxadiazol-2-yl)piperidin-1-yl)-3-(2-((5-methyl-2H-tetrazol-2-yl)methyl)-4-(trifluoromethyl)phenyl)prop-2-en-1-one] and `Cc1nnn(Cc2cc(OC(F)(F)F)ccc2/C=C/C(=O)N2CCC(c3noc(C)n3)CC2)n1` [Example 3, (E)-1-(4-(5-Methyl-1,2,4-oxadiazol-3-yl)piperidin-1-yl)-3-(2-((5-methyl-2H-tetrazol-2-yl)methyl)-4-(trifluoromethoxy)phenyl)prop-2-en-1-one] are within 1.5-fold of each other in IC50: 0.0088 µM for the first, 0.012 µM for the second.

Compared with `Cc1nnn(Cc2cc(Cl)ccc2/C=C/C(=O)N2CCC(c3noc(C)n3)CC2)n1` [Example 19, (E)-3-(4-Chloro-2-((5-methyl-2H-tetrazol-2-yl)methyl)phenyl)-1-(4-(5-methyl-1,2,4-oxadiazol-3-yl)piperidin-1-yl)prop-2-en-1-one], `Cc1nnn(Cc2cc(C(F)F)ccc2/C=C/C(=O)N2CCC(c3noc(C)n3)CC2)n1` [Example 55, (E)-3-(4-(Difluoromethyl)-2-((5-methyl-2H-tetrazol-2-yl)methy)phenyl)-1-(4-(5-methyl-1,2,4-oxadiazol-3-yl)piperidin-1-yl)prop-2-en-1-one] is 3.9-fold lower in IC50: 0.031 µM for the first, 0.008 µM for the second. The second is the more potent here.

First: Cc1nnn(Cc2cc(Cl)ccc2/C=C/C(=O)N2CCC(n3nccn3)CC2)n1 [Example 22, (E)-1-(4-(2H-1,2,3-Triazol-2-yl)piperidin-1-yl)-3-(4-chloro-2-((5-methyl-2H-tetrazol-2-yl)methyl)phenyl)prop-2-en-1-one]
Second: Cc1nnn(Cc2cc(Cl)ccc2/C=C/C(=O)N2CCC(N3CCNC3=O)CC2)n1 [Example 49.3, (E)-1-(1-(3-(4-Chloro-2-((5-methyl-2H-tetrazol-2-yl)methyl)phenyl)acryloyl)piperidin-4-yl)imidazolidin-2-one]
The IC50 of the first is 5-fold lower: 0.026 µM for the first, 0.129 µM for the second.

Compared with `CCCNC(=O)COC1CCN(C(=O)/C=C/c2ccc(Cl)cc2Cn2nnc(C)n2)CC1` [Example 49.30, (E)-2-((1-(3-(4-Chloro-2-((5-methyl-2H-tetrazol-2-yl)methyl)phenyl)acryloyl)piperidin-4-yl)oxy)-N-propylacetamide], `CCNC(=O)COC1CCCN(C(=O)/C=C/c2ccc(Cl)cc2Cn2nnc(C)n2)C1` (stereo not drawn) [Example 49.22, (E)-2-((1-(3-(4-Chloro-2-((5-methyl-2H-tetrazol-2-yl)methyl)phenyl)acryloyl)piperidin-3-yl)oxy)-N-ethylacetamide] is 2.1-fold higher in IC50: 0.052 µM for the first, 0.11 µM for the second. The first is the more potent here.

`Cc1nnn(Cc2ccc(Cl)cc2/C=C/C(=O)N2CCC(Cc3nnc(C)o3)CC2)n1` [Example 43, (E)-3-(5-Chloro-2-((5-methyl-2H-tetrazol-2-yl)methyl)phenyl)-1-(4-((5-methyl-1,3,4-oxadiazol-2-yl)methyl)piperidin-1-yl)prop-2-en-1-one] and `Cc1nnc(CC2CCN(C(=O)/C=C/c3ccc(Cl)cc3Cn3ncnn3)CC2)o1` [Example 77, (E)-3-(2-((2H-Tetrazol-2-yl)methyl)-4-chlorophenyl)-1-(4-((5-methyl-1,3,4-oxadiazol-2-yl)methyl)piperidin-1-yl)prop-2-en-1-one] are within 1.5-fold of each other in IC50: 2.37 µM for the first, 1.99 µM for the second.

First: Cc1nc(Cc2cc(Cl)ccc2/C=C/C(=O)N2CCN(Cc3ccc(F)cc3)C[C@H]2C)no1 [Example 144, (R,E)-3-(4-Chloro-2-((5-methyl-1,2,4-oxadiazol-3-yl)methyl)phenyl)-1-(4-(4-fluorobenzyl)-2-methylpiperazin-1-yl)prop-2-en-1-one]
Second: Cc1nnn(Cc2cc(Cl)ccc2/C=C/C(=O)N2CCN(Cc3noc(C)n3)C[C@H]2C)n1 [Example 104, (R,E)-3-(4-Chloro-2-((5-methyl-2H-tetrazol-2-yl)methyl)phenyl)-1-(2-methyl-4-((5-methyl-1,2,4-oxadiazol-3-yl)methyl)piperazin-1-yl)prop-2-en-1-one]
The IC50 of the first is 3.6-fold higher: 0.014 µM for the first, 0.0039 µM for the second. The second is the more potent here.

Compared with `COC(=O)C1CCN(C(=O)/C=C/c2ccc(Cl)cc2Cn2nnc(C)n2)CC1` [Example 128, (E)-Methyl 1-(3-(4-chloro-2-((5-methyl-2H-tetrazol-2-yl)methyl)phenyl)acryloyl)piperidine-4-carboxylate], `Cc1nnn(Cc2cc(Cl)ccc2/C=C/C(=O)N2CCC(F)C2)n1` (stereo not drawn) [Example 49.5, (E)-3-(4-Chloro-2-((5-methyl-2H-tetrazol-2-yl)methyl)phenyl)-1-(3-fluoropyrrolidin-1-yl)prop-2-en-1-one] is 11-fold higher in IC50: 0.028 µM for the first, 0.32 µM for the second.

First: CCOC(=O)c1cnn(CC2(O)CCN(C(=O)/C=C/c3ccc(Cl)cc3Cn3nnc(C)n3)CC2)c1 [Example 32, (E)-Ethyl 1-((1-(3-(4-chloro-2-((5-methyl-2H-tetrazol-2-yl)methyl)phenyl)acryloyl)-4-hydroxypiperidin-4-yl)methyl)-1H-pyrazole-4-carboxylate]
Second: COc1ccc(CN2CCN(C(=O)/C=C/c3ccc(Cl)cc3Cn3nnc(C)n3)CC2)nc1 [Example 140.1, (E)-3-(4-Chloro-2-((5-methyl-2H-tetrazol-2-yl)methyl)phenyl)-1-(4-((5-methoxypyridin-2-yl)methyl)piperazin-1-yl)prop-2-en-1-one]
The IC50 of the first is 1.7-fold lower: 0.0035 µM for the first, 0.0059 µM for the second.

First: Cc1nnn(Cc2cc(Cl)ccc2/C=C/C(=O)N2CCC(c3nnc(CN4CCCCC4)o3)CC2)n1 [Example 122, (E)-3-(4-Chloro-2-((5-methyl-2H-tetrazol-2-yl)methyl)phenyl)-1-(4-(5-(piperidin-1-ylmethyl)-1,3,4-oxadiazol-2-yl)piperidin-1-yl)prop-2-en-1-one]
Second: Cc1csc(C(O)C2CCN(C(=O)/C=C/c3ccc(Cl)cc3Cn3nnc(C)n3)CC2)n1 (stereo not drawn) [Example 63, (E)-3-(4-Chloro-2-((5-methyl-2H-tetrazol-2-yl)methyl)phenyl)-1-(4-(hydroxy(4-methylthiazol-2-yl)methyl)piperidin-1-yl)prop-2-en-1-one]
The IC50 of the first is 11-fold higher: 0.058 µM for the first, 0.0055 µM for the second. The second is the more potent here.

Going from `Cc1nnn(Cc2cc(C(F)(F)F)ccc2/C=C/C(=O)N2CCN(Cc3ccn(C)n3)CC2)n1` [Example 89, (E)-1-(4-((1-Methyl-1H-pyrazol-3-yl)methyl)piperazin-1-yl)-3-(2-((5-methyl-2H-tetrazol-2-yl)methyl)-4-(trifluoromethyl)phenyl)prop-2-en-1-one] to `Cc1nnn(Cc2cc(Cl)ccc2/C=C/C(=O)N2CCC(CCNC(=O)c3c[nH]nc3C(F)(F)F)CC2)n1` [Example 146, (E)-N-(2-(1-(3-(4-Chloro-2-((5-methyl-2H-tetrazol-2-yl)methyl)phenyl)acryloyl)piperidin-4-yl)ethyl)-3-(trifluoromethyl)-1H-pyrazole-4-carboxamide], the IC50 rises from 0.0035 µM to 0.017 µM (4.9-fold). The first is the more potent here.

With `CCOc1c(NCCC2CN(C(=O)/C=C/c3ccc(Cl)cc3Cn3nnc(C)n3)CCO2)c(=O)c1=O` (stereo not drawn) [Example 150, (E)-3-((2-(4-(3-(4-Chloro-2-((5-methyl-2H-tetrazol-2-yl)methyl)phenyl)acryloyl)morpholin-2-yl)ethyl)amino)-4-ethoxycyclobut-3-ene-1,2-dione] the IC50 was 0.0069 µM.

From patent US9763957B2, “Autotaxin inhibitors” (Novartis AG, priority 2013, dated 2017)
